Measured values: paper PMC3115594 (Current Chemical Genomics, 2010)
pEC50: −log10 of the molar value.

Key:
[1] = biological target: T1, GR (pBIND-GR, GR-LBD/GAL4 DBD) (Homo sapiens, UniProt P04150); type: cell-based; conditions: for Induction: GR agonist, fold-induction, 384-well
T1 sequence (P04150 500-777): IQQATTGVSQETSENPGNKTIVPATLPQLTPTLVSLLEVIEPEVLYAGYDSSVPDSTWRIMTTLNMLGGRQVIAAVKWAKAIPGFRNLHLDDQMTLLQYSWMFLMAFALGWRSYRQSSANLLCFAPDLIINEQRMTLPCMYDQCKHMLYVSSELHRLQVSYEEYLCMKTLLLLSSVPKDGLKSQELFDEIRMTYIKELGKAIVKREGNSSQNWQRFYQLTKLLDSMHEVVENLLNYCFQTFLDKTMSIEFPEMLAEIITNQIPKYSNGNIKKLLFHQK

[2] = system: constitutive Renilla reporter expression in HEK293 cells; assay: Renilla luciferase internal control reporter; type: cell-based; conditions: E2 titration, treated/untreated (Fig. 5)

Compound | Induction [1] | pEC50 [1] | Renilla reporter induction [2]
C[C@@H]1C[C@H]2[C@@H]3CCC4=CC(=O)C=C[C@]4(C)[C@@]3(F)[C@@H](O)C[C@]2(C)[C@@]1(O)C(=O)CO [Dexamethasone, dexamethasone] | 760 | – | –
C[C@]12CCC(=O)C=C1CC[C@@H]1[C@@H]2[C@@H](O)C[C@]2(C=O)[C@@H](C(=O)CO)CC[C@@H]12 [aldosterone] | 42 | 4.68 | –
C[C@]12CCC(=O)C=C1CC[C@@H]1[C@@H]2[C@@H](O)C[C@@]2(C)[C@H]1CC[C@]2(O)C(=O)CO [Hydrocortisone, hydrocortisone] | 450 | – | –
C[C@]12CC[C@@H]3c4ccc(O)cc4CC[C@H]3[C@@H]1CC[C@@H]2O [17β-estradiol, 17β- estradiol] | – | – | around 1.0
